This is an account of results in US20090247602A1, “COSMETIC USE OF CONJUGATED COMPOUNDS OF INDOLIC AUXINS” (EXSYMOL S.A.M., priority 2008, published 2009).

For the test, the system named is sensory neurons from explants of rachidian ganglia of rat embryos. The experiment in a line: Neurotrophic activity test: neurite outgrowth of dissociated sensory neurons. The test is classed as cell-based. Particulars: 72 hours incubation; for % compared to the control: control = case 1. The source says:
In other respects, and forming the basis of the present invention, it has been discovered for a very small panel of structures limited to the only conjugates of aspartic and glutamic acids, an unexpected property that is a said-neurotrophic activity. This activity is also found in a class of endogenous proteins, the neurotrophins, and in particular in the “NGF” (or “nerve growth factor”), an essential growth and survival factor in the formation and the maintenance of the cutaneous nervous network (M. Bothwell, J. Invest. Dermatol. Symposium Proceedings (1997), vol. 2, pp. 27-30). This remarkable activity, without any connection with antioxidant properties of these compounds, has been evidenced through an in vitro test that consists in measuring the neurites outgrowth kinetics from rat embryos sensory neurons selected for their physiology very similar to the one of human sensory neurons.
Test: Evidence of the Neurotrophic Activity of Aminoacid Conjugates of Indolic Auxins
The experimental study has been achieved on dissociated sensory neurons from explants of rachidian ganglia of rat embryos, and prepared according to the method described by Hall A. K. and al (J. Neurosci. (1997), vol. 17, pp. 2775-2784). After dissection and dissociation, sensory neurons are at once incubated in the following culture media (in hexaplicate), according to three situations: • case 1: culture medium without NGF, and without active ingredient according to the invention (control) • case 2: culture medium without NGF, with an active ingredient according to the invention • case 3: culture medium with NGF (positive reference)
After an incubation time of 72 hours, cells are washed and fixed. They are then labelled by an anti β-tubulin antibody reacting with cellular bodies and outgrowths of neurons. After a disclosure with an Alexa Fluor 488 secondary antibody, colour picture inputs were proceeded (using “In Cell Analyzer 1000™”). These digital data are then used for measuring a relative density of neurite length compared to the non treated control (case 1).
The neurotrophic effect of tested compounds is expressed by an increase (in μm) of this density of neurite outgrowth of neurons, synonymous with a strengthended development kinetic of neuronal network and a better viability (survival) of this latter.

Where [1] appears, read: 0.12 mg/ml, medium without NGF (case 2).
[2] abbreviates: 5.10^−6 mg/ml, medium with NGF (case 3, positive reference).

Take `O=C(O)C[C@H](NC(=O)Cc1c[nH]c2ccccc12)C(=O)O` [IAA-Asp]: under setting [1], the “Average density of neurite outgrowth of sensory neurons” value (shortened to “Average density”) amounted to 6820 μm and the “% compared to the control” value was 108%.
The like results for `O=C(O)CC[C@H](NC(=O)Cc1c[nH]c2ccccc12)C(=O)O` [IAA-Glu, indolyl-3-acetylglutamic acid] were, in that order, 7335 μm and 117%.
The like results for `O=C(O)C[C@H](NC(=O)CCCc1c[nH]c2ccccc12)C(=O)O` [IBA-Asp, indolyl-3-butyrylaspartic acid] were, in that order, 8297 μm and 132%.
The like results for `O=C(O)CC[C@H](NC(=O)CCCc1c[nH]c2ccccc12)C(=O)O` [IBA-Glu] were, in that order, 7195 μm and 114%.
Take `O=C(O)C[C@H](NC(=O)CCc1c[nH]c2ccccc12)C(=O)O` [IPA-Asp]: under setting [1], the “Average density” value is on record as 6980 μm and the “% compared to the control” value is given as 111%.
The like results for `O=C(O)CC[C@H](NC(=O)CCc1c[nH]c2ccccc12)C(=O)O` [IPA-Glu] were, in that order, 8247 μm and 131%.
As for “NGF: nerve growth factor, a neurotrophin; positive reference (case 3)”, under setting [2], the “Average density” value was determined as 11750 μm and the “% compared to the control” value turned out to be 187%.
